Like-named read-outs stand apart in the source and are kept apart here.

The target of assay [1] is T1, NaV1.8 (Homo sapiens, UniProt Q9Y5Y9). The assay is described as follows: Activity against NaV 1.8 channel (Table 4). It is filed as cell-based. Here is the method:
Compounds of the invention are useful as antagonists of voltage-gated sodium ion channels. Antagonist properties of test compounds were assessed as follows. Cells expressing the NaV of interest were placed into microtiter plates. After an incubation period, the cells were stained with fluorescent dyes sensitive to the transmembrane potential. The test compounds were added to the microtiter plate. The cells were stimulated with either a chemical or electrical means to evoke a NaV dependent membrane potential change from unblocked channels, which was detected and measured with trans-membrane potential-sensitive dyes. Antagonists were detected as a decreased membrane potential response to the stimulus. The optical membrane potential assay utilized voltage-sensitive FRET sensors described by Gonzalez and Tsien (See, Gonzalez, J. E. and R. Y. Tsien (1995) “Voltage sensing by fluorescence resonance energy transfer in single cells” Biophys J 69(4):1272-80, and Gonzalez, J. E. and R. Y. Tsien (1997) “Improved indicators of cell membrane potential that use fluorescence resonance energy transfer” Chem Biol 4(4): 269-77) in combination with instrumentation for measuring fluorescence change such as the Voltage/Ion Probe Reader (VIPR®) (See, Gonzalez, J. E., K. Oades, et al. (1999) “Cell-based assays and instrumentation for screening ion-channel targets” Drug Discov Today 4(9): 431-439).
24 hours before the assay on VIPR, CHO cells endogenously expressing a NaV 1.2 type voltage-gated NaV are seeded in 96-well poly-lysine coated plates at 60,000 cells per well. Other subtypes are performed in an analogous mode in a cell line expressing the NaV of interest.
The following is an example of how NaV1.3 inhibition activity is measured using the optical membrane potential method#2. Other subtypes are performed in an analogous mode in a cell line expressing the NaV of interest.
HEK293 cells stably expressing NaV1.3 are plated into 96-well microtiter plates. After an appropriate incubation period, the cells are stained with the voltage sensitive dyes CC2-DMPE/DiSBAC2(3) as follows.
Patch clamp electrophysiology was used to assess the efficacy and selectivity of sodium channel blockers in dorsal root ganglion neurons. Rat neurons were isolated from the dorsal root ganglions and maintained in culture for 2 to 10 days in the presence of NGF (50 ng/ml) (culture media consisted of NeurobasalA supplemented with B27, glutamine and antibiotics). Small diameter neurons (nociceptors, 8-12 μm in diameter) have been visually identified and probed with fine tip glass electrodes connected to an amplifier (Axon Instruments). The “voltage clamp” mode has been used to assess the compound's IC50 holding the cells at −60 mV. In addition, the “current clamp” mode has been employed to test the efficacy of the compounds in blocking action potential generation in response to current injections. The results of these experiments have contributed to the definition of the efficacy profile of the compounds.
TTX-resistant sodium currents were recorded from DRG somata using the whole-cell variation of the patch clamp technique. Recordings were made at room temperature (˜22° C.) with thick walled borosilicate glass electrodes (WPI; resistance 3-4 MΩ) using an Axopatch 200B amplifier (Axon Instruments). After establishing the whole-cell configuration, approximately 15 minutes were allowed for the pipette solution to equilibrate within the cell before beginning recording. Currents were lowpass filtered between 2-5 kHz and digitally sampled at 10 kHz. Series resistance was compensated 60-70% and was monitored continuously throughout the experiment. The liquid junction potential (−7 mV) between the intracellular pipette solution and the external recording solution was not accounted for in the data analysis. Test solutions were applied to the cells with a gravity driven fast perfusion system (SF-77; Warner Instruments). […]

Assay [2] addresses NaV1.1 (Homo sapiens, UniProt P35498). As to conditions: read-out: TTX IC50; cited from earlier work.
The target of assay [3] is T1, NaV1.8. As to conditions: read-out: TTX IC50; cited from earlier work.
Assay [4] deals with NaV1.9 (Homo sapiens, UniProt Q9UI33). As to conditions: read-out: TTX IC50; cited from earlier work.
The target in assay [5] is NaV1.3 (Homo sapiens, UniProt Q9NY46). As to conditions: read-out: TTX IC50; cited from earlier work.
In assay [6] the target is NaV1.6 (Homo sapiens, UniProt Q9UQD0). As to conditions: read-out: TTX IC50; cited from earlier work.
Assay [7] has as its target NaV1.2 (Homo sapiens, UniProt Q99250). As to conditions: read-out: TTX IC50; cited from earlier work.
For assay [8] the following is noted: human, in vivo; cited from earlier work.

T1 sequence (Q9Y5Y9 whole entry, looked up): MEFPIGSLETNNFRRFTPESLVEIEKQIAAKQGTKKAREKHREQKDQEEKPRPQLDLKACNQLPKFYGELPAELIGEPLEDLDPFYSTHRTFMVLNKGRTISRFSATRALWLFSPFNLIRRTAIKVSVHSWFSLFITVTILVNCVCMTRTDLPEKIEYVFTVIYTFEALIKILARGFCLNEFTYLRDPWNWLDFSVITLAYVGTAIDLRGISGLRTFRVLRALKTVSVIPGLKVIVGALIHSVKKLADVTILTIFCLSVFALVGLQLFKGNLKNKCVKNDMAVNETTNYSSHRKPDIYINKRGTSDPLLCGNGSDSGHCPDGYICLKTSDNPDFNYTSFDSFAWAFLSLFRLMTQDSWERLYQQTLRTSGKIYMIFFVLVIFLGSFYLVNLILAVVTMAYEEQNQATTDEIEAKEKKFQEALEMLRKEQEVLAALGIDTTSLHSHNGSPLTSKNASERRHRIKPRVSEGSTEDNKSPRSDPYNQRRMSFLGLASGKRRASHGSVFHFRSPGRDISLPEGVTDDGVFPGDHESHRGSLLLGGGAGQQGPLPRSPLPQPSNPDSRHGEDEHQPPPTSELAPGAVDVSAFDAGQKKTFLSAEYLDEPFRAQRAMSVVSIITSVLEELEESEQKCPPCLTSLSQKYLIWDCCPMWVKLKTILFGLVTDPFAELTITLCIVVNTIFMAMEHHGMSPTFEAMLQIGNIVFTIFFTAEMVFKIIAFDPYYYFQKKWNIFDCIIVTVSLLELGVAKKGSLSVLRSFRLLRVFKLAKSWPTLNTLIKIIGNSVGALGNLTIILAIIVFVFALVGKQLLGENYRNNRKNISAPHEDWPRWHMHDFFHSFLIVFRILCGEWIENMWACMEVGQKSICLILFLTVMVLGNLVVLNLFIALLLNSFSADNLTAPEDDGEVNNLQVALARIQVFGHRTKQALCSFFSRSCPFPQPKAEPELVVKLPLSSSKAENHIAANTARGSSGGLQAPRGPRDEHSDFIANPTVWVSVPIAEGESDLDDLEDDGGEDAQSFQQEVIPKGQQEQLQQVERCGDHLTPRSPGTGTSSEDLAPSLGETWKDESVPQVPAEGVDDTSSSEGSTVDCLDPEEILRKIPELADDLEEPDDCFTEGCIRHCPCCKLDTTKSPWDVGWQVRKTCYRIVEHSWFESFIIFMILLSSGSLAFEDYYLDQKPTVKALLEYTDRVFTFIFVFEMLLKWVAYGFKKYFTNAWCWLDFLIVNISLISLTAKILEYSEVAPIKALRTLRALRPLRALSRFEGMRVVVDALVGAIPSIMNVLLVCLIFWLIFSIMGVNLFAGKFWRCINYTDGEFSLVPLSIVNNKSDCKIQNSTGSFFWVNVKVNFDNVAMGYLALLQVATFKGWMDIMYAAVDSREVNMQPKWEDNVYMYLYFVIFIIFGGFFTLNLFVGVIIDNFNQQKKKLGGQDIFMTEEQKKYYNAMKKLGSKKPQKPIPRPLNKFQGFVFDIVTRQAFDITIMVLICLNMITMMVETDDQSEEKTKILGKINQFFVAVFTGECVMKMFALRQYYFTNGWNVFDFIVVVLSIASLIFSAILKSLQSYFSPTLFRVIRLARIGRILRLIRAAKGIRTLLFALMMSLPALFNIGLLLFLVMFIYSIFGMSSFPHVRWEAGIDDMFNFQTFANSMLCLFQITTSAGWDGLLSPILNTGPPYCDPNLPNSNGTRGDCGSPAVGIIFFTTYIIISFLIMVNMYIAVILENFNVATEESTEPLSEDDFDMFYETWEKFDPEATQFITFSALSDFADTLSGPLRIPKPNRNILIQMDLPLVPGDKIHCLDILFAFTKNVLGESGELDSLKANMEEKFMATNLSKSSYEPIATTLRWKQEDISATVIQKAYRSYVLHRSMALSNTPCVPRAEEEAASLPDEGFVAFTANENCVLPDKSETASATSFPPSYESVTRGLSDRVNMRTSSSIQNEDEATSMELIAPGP
Chain of NaV1.9 (Q9UI33 whole entry, looked up): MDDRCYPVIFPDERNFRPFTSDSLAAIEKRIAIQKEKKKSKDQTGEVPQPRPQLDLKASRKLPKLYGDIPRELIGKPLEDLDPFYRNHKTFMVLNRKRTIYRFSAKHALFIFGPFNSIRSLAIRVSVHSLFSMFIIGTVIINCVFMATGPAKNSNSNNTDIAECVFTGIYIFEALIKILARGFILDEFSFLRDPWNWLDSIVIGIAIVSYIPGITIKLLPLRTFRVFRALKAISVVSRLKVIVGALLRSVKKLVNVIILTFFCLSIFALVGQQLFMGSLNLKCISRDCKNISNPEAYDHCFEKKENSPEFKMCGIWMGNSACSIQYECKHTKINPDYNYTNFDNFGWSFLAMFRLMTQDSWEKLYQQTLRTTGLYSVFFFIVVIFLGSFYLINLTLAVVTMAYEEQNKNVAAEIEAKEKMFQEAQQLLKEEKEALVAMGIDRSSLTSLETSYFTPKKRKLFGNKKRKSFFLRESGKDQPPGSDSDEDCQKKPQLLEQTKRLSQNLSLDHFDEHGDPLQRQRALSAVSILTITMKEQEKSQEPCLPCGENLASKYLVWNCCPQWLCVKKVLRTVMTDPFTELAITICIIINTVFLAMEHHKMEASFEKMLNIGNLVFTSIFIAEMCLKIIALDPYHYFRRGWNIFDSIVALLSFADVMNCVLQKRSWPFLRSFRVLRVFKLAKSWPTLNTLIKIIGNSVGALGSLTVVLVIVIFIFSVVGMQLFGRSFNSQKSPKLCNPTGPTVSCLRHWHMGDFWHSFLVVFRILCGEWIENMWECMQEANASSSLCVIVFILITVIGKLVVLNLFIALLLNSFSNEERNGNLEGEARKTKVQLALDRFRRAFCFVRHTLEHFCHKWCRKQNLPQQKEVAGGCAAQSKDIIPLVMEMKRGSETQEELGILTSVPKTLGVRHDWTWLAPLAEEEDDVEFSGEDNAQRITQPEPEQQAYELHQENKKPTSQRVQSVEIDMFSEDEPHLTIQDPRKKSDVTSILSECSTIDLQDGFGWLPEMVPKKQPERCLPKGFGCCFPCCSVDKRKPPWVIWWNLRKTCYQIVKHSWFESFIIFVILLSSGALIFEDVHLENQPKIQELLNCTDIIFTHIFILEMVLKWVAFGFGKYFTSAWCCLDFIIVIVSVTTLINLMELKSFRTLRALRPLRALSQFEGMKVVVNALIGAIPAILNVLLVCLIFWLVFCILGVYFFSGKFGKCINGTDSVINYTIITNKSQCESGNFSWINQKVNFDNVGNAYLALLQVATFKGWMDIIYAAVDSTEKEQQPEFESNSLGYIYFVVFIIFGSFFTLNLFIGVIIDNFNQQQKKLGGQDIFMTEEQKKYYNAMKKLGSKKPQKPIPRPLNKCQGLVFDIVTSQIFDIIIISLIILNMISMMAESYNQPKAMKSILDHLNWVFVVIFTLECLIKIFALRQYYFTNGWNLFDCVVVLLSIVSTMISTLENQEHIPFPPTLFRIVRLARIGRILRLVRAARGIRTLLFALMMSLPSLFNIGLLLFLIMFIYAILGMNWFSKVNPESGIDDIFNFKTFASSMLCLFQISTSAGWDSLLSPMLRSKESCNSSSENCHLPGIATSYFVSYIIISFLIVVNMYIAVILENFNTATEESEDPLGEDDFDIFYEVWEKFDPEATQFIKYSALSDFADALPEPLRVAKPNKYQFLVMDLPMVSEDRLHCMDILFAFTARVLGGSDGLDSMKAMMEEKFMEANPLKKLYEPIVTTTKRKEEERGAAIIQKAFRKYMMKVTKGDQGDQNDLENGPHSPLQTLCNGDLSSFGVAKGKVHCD

One may read the IC50 as the concentration that inhibits the measured activity by half. As for `CCCCS(=O)(=O)N1CCN(c2nc(-c3ccccc3O)nc3scc(C)c23)CC1` [Compound 5, 2-(4-(4-(butylsulfonyl)piperazin-1-yl)-5-methylthieno[2,3-d]pyrimidin-2-yl)phenol], the IC50 in assay [1] was over 20 µM.

With `Cc1csc2nc(-c3ccccc3O)nc(N3CCC(NC(=O)OCC(C)C)CC3)c12` [Compound 6, Isobutyl 1-(2-(2-hydroxyphenyl)-5-methylthieno[2,3-d]pyrimidin-4-yl)piperidin-4-ylcarbamate], the half-inhibitory concentration (IC50) in assay [1] was over 20 µM.

As for `NC1=N[C@H](O)[C@H]2[C@H]3O[C@]4(O)O[C@@H]([C@@H](O)[C@@]2(N1)[C@@H]4O)[C@]3(O)CO` [TTX, tetrodotoxin], the IC50 is 0.01 µM in assay [2]; over 50 µM in assay [3]; 1 µM in assay [4]; 0.015 µM in assay [5]; 0.006 µM in assay [6]; 0.01 µM in assay [7].

Turning to `Cc1cc(C)c2c(n1)sc1c(N3CCOCC3)nc(-c3ccccc3O)nc12` [Compound 2], in assay [1], the IC50 is over 20 µM.

For the molecule `NCC1(CC(=O)O)CCCCC1` [Gabapentin], the “patients in whom it works” value in assay [8] is given as 60%.

As for `CC(C)COC(=O)N1CCN(c2nc(-c3ccccc3O)nc3ccsc23)CC1` [Compound 7, Isobutyl 4-(2-(2-hydroxyphenyl)thieno[3,2-d]pyrimidin-4-yl)piperazine-1-carboxylate], the IC50 in assay [1] was under 5 µM.

Consider `Oc1ccccc1-c1nc(N2CCOCC2)c2sc(-c3ccc(F)cc3)cc2n1` [Compound 1, 2-(6-(4-Fluorophenyl)-4-morpholinothieno[3,2-d]pyrimidin-2-yl)phenol], for which, in assay [1], the IC50 is over 20 µM.

Regarding `CC(C)COC(=O)NC1CCN(c2nc(-c3ccccc3O)nc3ccsc23)CC1` [Compound 8, Isobutyl 1-(2-(2-hydroxyphenyl)thieno[3,2-d]pyrimidin-4-yl)piperidin-4-ylcarbamate], the IC50 in assay [1] was under 5 µM.

Turning to `Cc1csc2nc(-c3ccccc3O)nc(N3CCN(C(=O)OCC(C)C)CC3)c12` [Compound 4, Isobutyl 4-(2-(2-hydroxyphenyl)-5-methylthieno[2,3-d]pyrimidin-4-yl)piperazine-1-carboxylate], the IC50 in assay [1] is over 20 µM.

The values above are taken from patent publication US8883781B2, “Thienopyrimidines useful as modulators of ion channels” (Vertex Pharmaceuticals Incorporated, priority 2006, dated 2014).
